{"source": "paper PMC12073438", "about": "“Stereoselectivity of In Vivo Processes and Bioactivity of Farrerol Enantiomers” (Molecules, 2025)", "key": {"[1]": {"experiment": "Stereoselective pharmacokinetics in rat plasma", "format": "in vivo, Sprague–Dawley rats", "conditions": "for MRT last: read-out: MRT(0–t); for chiral transformation between enantiomers: single enantiomers orally administered (75 mg/kg)", "procedure": "The pharmacokinetic data were optimally characterized by a noncompartmental model. The mean concentration-time profiles for the farrerol enantiomers are illustrated in Figure 3, along with the corresponding key pharmacokinetic parameters presented in Table 2.\nTwenty-five rats were randomly divided into five experimental groups (A, B, C, D, and E). Groups A and B received farrerol racemate via intragastric administration at doses of 150 mg/kg and 75 mg/kg, respectively. Group C was administered 4 mg/kg of farrerol racemate through caudal intravenous administration. […] Blood samples (300 μL) were obtained from the orbital venous plexus into heparinized tubes at various time points: 0.25, 0.5, 1, 2, 3, 5, 7, 9, 12, and 24 h following gavage administration, and at 0.083, 0.167, 0.25, 0.5, 1, 1.5, 2, 2.5, 3, and 5 h post-intravenous administration. Plasma was separated by centrifugation (3000 rpm, 10 min) and stored at −80 °C until analysis.\nA total of 150 μL of plasma and 50 μL of the internal standard solution were added to a 1.5 mL EP tube and mixed using a vortex for 30 s. Subsequently, 500 μL of ether was introduced, and the mixture was vortexed for 5 min. Following centrifugation at 10,000 rpm for 10 min, the resulting organic layer was carefully transferred to a separate tube. Each sample underwent two extraction processes. The resulting ether layer was then evaporated to dryness using a continuous air stream at room temperature. A 250 μL aliquot of methanol was employed to re-dissolve the residue, utilizing vortex mixing for 2 min. Following centrifugation at 14,000 rpm for 10 min, the supernatant was subsequently injected into the HPLC-MS system for analysis.\n(§1) Stereoselective chromatographic analysis of farrerol enantiomers was conducted utilizing an ACQUITY UPLC I-Class UPLC system (Waters, Milford, MA, USA), which is equipped with a quaternary pump and an autosampler. The chiral separation was carried out employing a Chiralpak OJ-RH column (250 mm × 4.6 mm, 5 μm), which was obtained from Daicel Chemical Industries (Shanghai, China). The mobile phase consisted of ACN-H2O (60:40, v/v), and the constant flow rate was 0.5 mL/min. The column temperature was set at 25 °C, and the injection volume was 10 μL.\n(§2) Mass detection was conducted using a triple quadrupole mass spectrometer (Waters Co., USA) equipped with an electrospray ionization (ESI) source. The detection of enantiomers and internal standards (IS) was carried out in multiple reaction monitoring (MRM) mode utilizing negative ionization. The m/z 299→179 for enantiomers and m/z 267→252 for IS were selected as detecting ions for quantitation. The collision energies (CE) were established at 22 eV and 20 eV, respectively. The primary mass spectrometry (MS) parameters were configured as follows: capillary voltage was set to 3.5 kV, ion source temperature was maintained at 150 °C, desolvation gas flow rate was 800 L/h, and the cone voltage (CV) was adjusted to 1.3 V.\n(§3) Pharmacokinetic analysis was conducted utilizing the Drug and Statistics (DAS) 2.0 software provided by the Chinese Pharmacological Society. To assess the differences in pharmacokinetic parameters, the IC50 values of the evaluated CYP enzymes and the permeability coefficients between the two farrerol enantiomers, paired sample t-tests and independent sample t-tests were performed. Statistical significance was defined as * p < 0.05 and ** p < 0.01. All results are presented as mean values ± standard deviation (SD)."}, "[2]": {"experiment": "Stereoselective pharmacokinetics in rat kidney tissue", "format": "in vivo, Sprague–Dawley rats", "conditions": "rat kidney, oral 40 mg/kg farrerol racemate; for Cmax / AUC(0–t) / AUC(0–∞): 40 mg/kg", "procedure": "Forty-two rats were divided randomly into seven groups (6 rats per time point at 0.5, 1, 2, 4, 8, 12, and 24 h) and were orally administered farrerol racemate at a dose of 40 mg/kg. Rats from each group were euthanized, and kidney and liver tissues were subsequently obtained. After washing three times using 0.9% sodium chloride solution, the attached blood and fat tissues were removed. Afterward, 0.5 g of the precisely weighed liver and kidney tissues were added to 1 mL 0.9% sodium chloride solution and homogenized in an ice bath. Subsequently, 150 µL of supernatant was transferred into a 2.0 mL EP tube for pre-treatment, in the same way as the pretreatment of plasma samples (see Section 3.4.1).\nas §1, §2, §3"}, "[3]": {"conditions": "Sprague-Dawley, rat, plasma, iv, 4 mg/kg, i.v. of farrerol racemate (4 mg/kg)"}, "[4]": {"conditions": "Sprague-Dawley, rat, plasma, po, 150 mg/kg, i.g. of farrerol racemate (150 mg/kg)"}, "[5]": {"conditions": "i.g. of farrerol racemate (75 mg/kg)"}, "[6]": {"conditions": "i.g. of farrerol racemate (150 mg/kg)"}, "[7]": {"conditions": "i.g. of the single enantiomer (75 mg/kg)"}, "[8]": {"conditions": "i.v. of farrerol racemate (4 mg/kg)"}, "[9]": {"conditions": "oral 75 mg/kg farrerol racemate"}, "[10]": {"conditions": "Sprague-Dawley, rat, plasma, po, 75 mg/kg, i.g. of the single enantiomer (75 mg/kg)"}}, "note": "Several values for one entry are separate records, joined by “and”; a condition that tells them apart may be missing. Equal entries are not always repeated. Where two headings read alike, the source gives them in different places. Marks after values point to notes of the source that are not given here."}
{"smiles": "Cc1c(O)c(C)c2c(c1O)C(=O)CC(c1ccc(O)cc1)O2", "note": "(single isomer, unassigned; (+)) [(+)-farrerol, 2,3-dihydro-5,7-dihydroxy-2-(4-hydroxyphenyl)-6,8-dimethyl-4-benzopyrone]", "values": [{"measurement": "AUC(0-inf)", "setting": "[1]; [3]", "result": "1550 ± 56", "unit": "ng·h/mL"}, {"measurement": "AUC(0-t)", "setting": "[1]; [3]", "result": "1460 ± 54.5", "unit": "ng·h/mL"}, {"measurement": "half-life", "setting": "[1]; [3]", "result": "10.7 ± 0.1", "unit": "h"}, {"measurement": "Cmax", "setting": "[1]; Sprague-Dawley, rat, plasma, iv, 4 mg/kg, i.v. of farrerol racemate (4 mg/kg), read-out: Cmax", "result": 2660, "unit": "ng/mL"}, {"measurement": "MRT last", "setting": "[1]; [3]", "result": "2.7 ± 0.1", "unit": "h"}, {"measurement": "Tmax", "setting": "[1]; Sprague-Dawley, rat, plasma, iv, 4 mg/kg, i.v. of farrerol racemate (4 mg/kg), read-out: Tmax", "result": 0.08, "unit": "h"}, {"measurement": "MRT last", "setting": "[1]; Sprague-Dawley, rat, plasma, po, 75 mg/kg, i.g. of farrerol racemate (75 mg/kg)", "result": "6.27 ± 0.27", "unit": "h"}, {"measurement": "bioavailability", "setting": "[1]; [4]", "result": "6.4 ± 0.04", "unit": "%"}, {"measurement": "Cmax", "setting": "[1]; Sprague-Dawley, rat, plasma, po, 150 mg/kg, i.g. of farrerol racemate (150 mg/kg), read-out: Cmax", "result": "457 ± 24.6", "unit": "ng/mL"}, {"measurement": "MRT last", "setting": "[1]; [4]", "result": "5.98 ± 0.14", "unit": "h"}, {"measurement": "Tmax", "setting": "[1]; Sprague-Dawley, rat, plasma, po, 150 mg/kg, i.g. of farrerol racemate (150 mg/kg), read-out: Tmax", "result": 1.5, "unit": "h"}, {"measurement": "AUC(0–t)", "setting": "[1]; [5]", "result": "2399 ng·h/mL and 2399.1 ± 102.3 ng·h/mL"}, {"measurement": "AUC(0–∞)", "setting": "[1]; [5]", "result": "6870.3 ± 511.4", "unit": "ng·h/mL"}, {"measurement": "Cmax", "setting": "[1]; [5]", "result": "287.0 ± 24.6", "unit": "ng/mL"}, {"measurement": "F", "setting": "[1]; [5]", "result": "8.7 ± 0.7", "unit": "%"}, {"measurement": "Tmax", "setting": "[1]; [5]", "result": 3.00, "unit": "h"}, {"measurement": "t1/2", "setting": "[1]; [5]", "result": "19.2 ± 2.0 ** h"}, {"measurement": "AUC(0–t)", "setting": "[1]; [6]", "result": "3522.6 ± 146.0", "unit": "ng·h/mL"}, {"measurement": "AUC(0–∞)", "setting": "[1]; [6]", "result": "13,885.5 ± 2550.4 ng/mL*h"}, {"measurement": "t1/2", "setting": "[1]; [6]", "result": "22.9 ± 2.6", "unit": "h"}, {"measurement": "AUC(0–∞)", "setting": "[1]; [7]", "result": "22,122.4 ± 1894.1 ng/mL*h"}, {"measurement": "Cmax", "setting": "[1]; [7]", "result": "1177.4 ± 84.5", "unit": "ng/mL"}, {"measurement": "MRT(0–t)", "setting": "[1]; [7]", "result": "9.12 ± 0.18", "unit": "h"}, {"measurement": "Tmax", "setting": "[1]; [7]", "result": 5.00, "unit": "h"}, {"measurement": "t1/2", "setting": "[1]; [7]", "result": "10.4 ± 0.4", "unit": "h"}, {"measurement": "Cmax", "setting": "[1]; [8]", "result": "2662.7 ± 226.4", "unit": "ng/mL"}, {"measurement": "AUC0–t of (+)-farrerol relative to (−)-farrerol", "setting": "[1]; [9]", "result": "~5.6", "unit": "fold"}, {"measurement": "Cmax of (+)-farrerol relative to (−)-farrerol", "setting": "[1]; [9]", "result": "about 3.5 fold"}, {"measurement": "AUC0–t of (+)-farrerol relative to (−)-farrerol", "setting": "[1]; oral 75 mg/kg of single enantiomers", "result": "~2.61", "unit": "fold"}, {"measurement": "chiral transformation between enantiomers", "setting": "[1]", "result": "no chiral transformation"}, {"measurement": "Cmax", "setting": "[2]; Sprague-Dawley, rat, kidney, po, read-out: Cmax", "result": "3020 ± 350", "unit": "ng/g"}, {"measurement": "Tmax", "setting": "[2]; Sprague-Dawley, read-out: Tmax", "result": 1, "unit": "h"}, {"measurement": "AUC(0–t)", "setting": "[2]", "result": "23.93 ± 2.11", "unit": "µg·h/g"}, {"measurement": "AUC(0–∞)", "setting": "[2]", "result": "25.70 ± 2.09", "unit": "µg·h/g"}]}
{"smiles": "Cc1c(O)c(C)c2c(c1O)C(=O)CC(c1ccc(O)cc1)O2", "note": "(single isomer, unassigned; (-)) [(−)-farrerol, 2,3-dihydro-5,7-dihydroxy-2-(4-hydroxyphenyl)-6,8-dimethyl-4-benzopyrone]", "values": [{"measurement": "half-life", "setting": "[1]; [10]", "result": "12 ± 0.5", "unit": "h"}, {"measurement": "MRT last", "setting": "[1]; [10]", "result": "10.8 ± 0.47", "unit": "h"}, {"measurement": "AUC(0–t)", "setting": "[1]; [5]", "result": "428.3 ± 88.2 ** ng/mL*h"}, {"measurement": "AUC(0–∞)", "setting": "[1]; [5]", "result": "1341.8 ± 337.6 ** ng/mL*h"}, {"measurement": "Cmax", "setting": "[1]; [5]", "result": "80.5 ± 7.5 ** ng/mL"}, {"measurement": "F", "setting": "[1]; [5]", "result": "2.3 ± 0.05 ** %"}, {"measurement": "MRT(0–t)", "setting": "[1]; [5]", "result": "5.61 ± 0.56", "unit": "h"}, {"measurement": "Tmax", "setting": "[1]; [5]", "result": "1.00 * h"}, {"measurement": "t1/2", "setting": "[1]; [5]", "result": "8.5 ± 1.5 ** h"}, {"measurement": "AUC(0–t)", "setting": "[1]; [6]", "result": "1622.6 ± 84.3 ** ng/mL*h"}, {"measurement": "AUC(0–∞)", "setting": "[1]; [6]", "result": "1837.8 ± 226.9 ** ng/mL*h"}, {"measurement": "Cmax", "setting": "[1]; [6]", "result": "390.0 ± 35.3 * ng/mL"}, {"measurement": "F", "setting": "[1]; [6]", "result": "4.3 ± 0.7 * %"}, {"measurement": "MRT(0–t)", "setting": "[1]; [6]", "result": "4.65 ± 0.06", "unit": "h"}, {"measurement": "Tmax", "setting": "[1]; [6]", "result": 1.50, "unit": "h"}, {"measurement": "t1/2", "setting": "[1]; [6]", "result": "3.5 ± 0.4 ** h"}, {"measurement": "AUC(0–t)", "setting": "[1]; [7]", "result": "6746.8 ± 298.7", "unit": "ng·h/mL"}, {"measurement": "AUC(0–∞)", "setting": "[1]; [7]", "result": "8572.4 ± 221.0", "unit": "ng·h/mL"}, {"measurement": "Cmax", "setting": "[1]; [7]", "result": "520.9 ± 91.7", "unit": "ng/mL"}, {"measurement": "Tmax", "setting": "[1]; [7]", "result": "2.00 ^# h"}, {"measurement": "AUC(0–t)", "setting": "[1]; [8]", "result": "1012.4 ± 88.1 ** ng/mL*h"}, {"measurement": "AUC(0–∞)", "setting": "[1]; [8]", "result": "1195.7 ± 49.7 ** ng/mL*h"}, {"measurement": "Cmax", "setting": "[1]; [8]", "result": "1695.0 ± 224.6 ** ng/mL"}, {"measurement": "MRT(0–t)", "setting": "[1]; [8]", "result": "3.48 ± 0.07 * h"}, {"measurement": "Tmax", "setting": "[1]; [8]", "result": 0.08, "unit": "h"}, {"measurement": "t1/2", "setting": "[1]; [8]", "result": "19.0 ± 3.7 * h"}, {"measurement": "chiral transformation between enantiomers", "setting": "[1]", "result": "no chiral transformation"}, {"measurement": "AUC0–24 of (−)-farrerol relative to (+)-farrerol", "setting": "[2]", "result": 1.20, "unit": "times"}, {"measurement": "Tmax", "setting": "[2]", "result": 1.00, "unit": "h"}, {"measurement": "AUC(0–t)", "setting": "[2]", "result": "28.89 ± 2.53 * µg/g*h"}, {"measurement": "AUC(0–∞)", "setting": "[2]", "result": "30.31 ± 2.47 * µg/g*h"}, {"measurement": "Cmax", "setting": "[2]", "result": "4.18 ± 0.48 * µg/g"}]}
